These results are taken from patent US20110306762A1, “ACID ADDITION SALT OF UDENAFIL, PREPARATION METHOD THEREOF AND PHARMACEUTICAL COMPOSITION COMPRISING THE SAME” (priority 2009, published 2011).

Series [1] in a line: Hygroscopicity test of acid addition salts of Udenafil. The series is classed as physicochemical. The conditions noted are these: exposed for 2 hours, room temperature, relative humidity 43%.
The nature of series [2]: Crystallinity test of acid addition salts of Udenafil. The series is classed as physicochemical. More on the design: key: ◯: Formation of crystal; X: No formation of crystal. The conditions noted are these: for Crystallinity test 1-2: crystallization: whether crystallization occurs after dissolving the salt in a suitable solvent; for Crystallinity test 1-1: detecting whether the crystal is formed in the reaction solution. How it is done:
The acid addition salts of Udenafil obtained in Examples 1 to 6 and Comparative Examples were tested for crystallinity and hygroscopicity as follows.
1) detecting whether the crystal is formed in the reaction solution, and
2) crystallization: detecting whether crystallization occurs after dissolving acid addition salt of Udenafil in a suitable solvent.

Series [3] in a line: Solubility test in distilled water by HPLC. The series is classed as physicochemical. From the text: To test the solubility of the acid addition salts of Udenafil in distilled water, the following experiments were preformed.
The analysis conditions for HPLC were as follows:
Detector: ultraviolet ray absorbance measured at wavelength 292 nm
Column: octadecyl silica gel C18 (4.6×150 mm, 5 μm)
Mobile phase: an aqueous solution of potassium dihydrogenphosphate (0.02M):acetonitrile=70:30

For series [4] the following is noted: in vivo; cited from earlier work.
For another series, the target named is PDE-5 (Homo sapiens, UniProt O76074). The conditions noted are these: compared with the conventional compounds; cited from earlier work.

On to `CC1(C)C2CCC1(CS(=O)(=O)O)C(=O)C2.CCCOc1ccc(S(=O)(=O)NCCC2CCCN2C)cc1-c1nc2c(CCC)nn(C)c2c(=O)[nH]1` (centres unmarked) [Example 3, Camphorsulfonic Acid Addition Salt of Udenafil], for which the “Hygroscopicity (weight change ratio, %)” value in series [1] was 0.7%. Further, in series [2], the “Crystallinity test 1-2” value is listed as “◯” and the “Crystallinity test 1-1” value is given as “◯”. Moreover, the “solubility in the distilled water” value in series [3] is given as “remarkably excellent solubility”. Further, in series [3] (HPLC, UV 292 nm), the “Average of measured peak area” value is 7,142,473, the “First measured peak area” value was 7,141,140, the “second measured peak area” value is recorded as 7,127,027 and the “third measured peak area” value is 7,158,961.

On to `CCCOc1ccc(S(=O)(=O)NCCC2CCCN2C)cc1-c1nc2c(CCC)nn(C)c2c(=O)[nH]1` (centres unmarked) [Udenafil, 5-[2-propyloxy-5-(1-methyl-2-pyrrolidinyleneamidosulfonyl)phenyl]-1-methyl-propyl-1,6-dihydro-7H-pyrazolo(4,3-d)pyrimidine-7-one], for which, in series [4], the half-life was 12 h and the “time to maximum peak plasma concentration” value was 1 h. Besides, the “selectivity to PDE-5” value on PDE-5 is “notably higher selectivity”. The “solubility in the distilled water” value in series [3] was “hardly dissolved”. For the same molecule, the “detection in the distilled water” value in series [3] (HPLC) is on record as “not detected”.

On to `N[C@@H](CC(=O)O)C(=O)O` [aspartic acid], for which, in series [2], the “Crystallinity test 1-2” value was “X” and the “Crystallinity test 1-1” value is on record as “X”.

On to `O=C(O)CC(O)(CC(=O)O)C(=O)O` [citric acid], for which, in series [2], the “Crystallinity test 1-2” value was “X” and the “Crystallinity test 1-1” value is “X”.

As for `O=CO` [formic acid], in series [2], the “Crystallinity test 1-2” value was “X” and the “Crystallinity test 1-1” value is recorded as “X”.

`O=C(O)/C=C/C(=O)O` [fumaric acid]: in series [2], the “Crystallinity test 1-2” value is “X” and the “Crystallinity test 1-1” value was “X”.

In the case of `N[C@@H](CCC(=O)O)C(=O)O` [glutamic acid], in series [2], the “Crystallinity test 1-2” value is on record as “X” and the “Crystallinity test 1-1” value was “X”.

Consider `O=C(O)CCCC(=O)O` [glutaric acid], for which, in series [2], the “Crystallinity test 1-2” value is “X” and the “Crystallinity test 1-1” value is given as “X”.

For `O=C(O)CNC(=O)c1ccccc1` [hippuric acid], in series [2], the “Crystallinity test 1-2” value was “X” and the “Crystallinity test 1-1” value was “X”.

`CC(O)C(=O)O` (centres unmarked) [lactic acid]: in series [2], the “Crystallinity test 1-2” value is on record as “X” and the “Crystallinity test 1-1” value is listed as “X”.

In the case of `O=C(O)/C=C\C(=O)O` [maleci acid], in series [2], the “Crystallinity test 1-2” value is recorded as “X” and the “Crystallinity test 1-1” value is recorded as “X”.

As for `O=C(O)/C=C\C(=O)O` [maleic acid], in series [2], the “Crystallinity test 1-2” value is “X” and the “Crystallinity test 1-1” value was “X”.

As to `O=C(O)CC(=O)O` [malonic acid], in series [2], the “Crystallinity test 1-2” value is “X” and the “Crystallinity test 1-1” value was “X”.

In the case of `O=C(O)CCC(=O)O` [succinic acid], in series [2], the “Crystallinity test 1-2” value was “X” and the “Crystallinity test 1-1” value is listed as “X”.

As to `O=C(O)C(O)C(O)C(=O)O` (centres unmarked) [tartaric acid], in series [2], the “Crystallinity test 1-2” value is listed as “X” and the “Crystallinity test 1-1” value was “X”.

For “Adipic Acid Addition Salt of Udenafil [Example 5]”, in series [2], the “Crystallinity test 1-2” value was “◯” and the “Crystallinity test 1-1” value was “◯”.

For the molecule “Benzenesulfonic Acid Addition Salt of Udenafil [Example 2]”, in series [2], the “Crystallinity test 1-2” value is listed as “◯” and the “Crystallinity test 1-1” value is “◯”.

With “Cinnamic Acid Addition Salt of Udenafil [Example 4]”, in series [2], the “Crystallinity test 1-2” value is on record as “◯” and the “Crystallinity test 1-1” value is recorded as “◯”.

Regarding “Oxalic Acid Addition Salt of Udenafil [Example 1]”, in series [2], the “Crystallinity test 1-2” value is listed as “◯” and the “Crystallinity test 1-1” value is listed as “◯”.

For orientation: half-life means the time needed for the level to fall by half in the phase considered.
